What was measured:
in vitro = conditions: human, Caco-2, Papp (cm/s) a-b × 10^−6
Procedure: Validation of the Caco-2 transport experiments required consideration of three parameters, i.e., firstly, to determine the cytotoxic concentrations of synthetic aspalathin, secondly, the concentration of aspalathin required to ensure HPLC detection in the basolateral compartment, and finally, to assess whether the transport of aspalathin is concentration dependent.
Cells were cultured at 37 °C and 5% CO2 in 95% humidified air in Eagle’s Minimum Essential Medium (EMEM) containing sodium […] pyruvate, supplemented with 2 mM L-glutamine, 1% non-essential amino acids and 10% heat inactivated FBS. Cell cultures were split when 70%–80% confluent, using trypsin/ethylenediaminetetraacetic acid (EDTA). The culture medium, pre-warmed to 37 °C, was refreshed every 2–3 days. Cells were seeded at 1 × 10^4 cells/cm^2 and a sub-cultivation ratio of 1:3 was routinely used. Cells were seeded with the addition of 1% penicillin/streptomycin mixture (10,000 units/mL potassium penicillin and 10,000 µg/mL streptomycin sulphate) at 4 × 10^4 cells/cm^2 onto 0.4 µm polycarbonate 6-well inserts with an insert area of 4.52 cm^2. Cells were used for transport experiments when TEER values across wells were >300 Ω, typically 21–23 days post confluence. Only passages 50–60 were used to prevent phenotypic drift.
The cell monolayers were equilibrated briefly with transport buffer, pH 6.0 (HBSS with 2-(N-morpholino) ethanesulphonic acid (MES)) on the apical side and pH 7.4 (HBSS with HEPES) on the basolateral side, to remove traces of the culture media. Following this, transport buffers were added for 30 min prior to the addition of treatment (inhibitors were added during this step when required, as well as during the subsequent treatment incubation step). After equilibration, the plates containing transport medium were incubated for 30 min at 37 °C at 5% CO2 in 95% humidified air and the TEER value of the monolayer determined. […] For basolateral-to-apical compartment studies, 2.4 mL of treatment at the same concentrations in HBSS (pH 7.4), was added to the basolateral compartment.
To assess whether aspalathin was co-transported with glucose, its transport (100 µM) at both high (20.5 mM) and low (5.5 mM) glucose concentrations, mimicking the intestinal lumen glucose concentrations pre- and post-meals, was monitored. This was followed by experiments performed in the presence and absence of SGLT1 (100 µM phloridzin), GLUT2 (100 µM phloretin) and efflux, PgP (100 µM verapamil) inhibitors.
Samples (1.2 mL) were withdrawn from the basolateral or the apical compartment to measure the concentration of aspalathin uptake and efflux, respectively at 0, 0.5, 1, 1.5, and 2 h under sink conditions (the sample aliquot replaced with equal volume of relevant transport buffer). Sample aliquots (350 µL) were frozen in liquid nitrogen after the addition of ascorbic acid (35 µL of 10% solution) and stored at −65 °C until HPLC analysis. Results were corrected for dilution and expressed as cumulative transport (% of initial dose) as a function of time. Papp (cm/s) for bi-directional transport studies was calculated as previously described. Transport of other major flavonoids in the matrices, i.e., nothofagin, the 3-deoxy analogue of aspalathin and its flavone derivatives, orientin and isoorientin, were also determined.
Lucifer yellow (final concentration 0.1 mM) was used as a membrane integrity marker and co-incubated with the compounds and extracts.
HPLC-DAD analysis of samples from the apical and basolateral compartments was performed in duplicate on an Agilent 1200 system as previously described. Basolateral and apical samples taken after 2 h with pure aspalathin were also analysed using LC-MS (parameters described in [42]) to determine whether aspalathin metabolites were formed in the Caco-2 model.
All experiments were performed in triplicate and the data expressed as mean ± SD, unless otherwise indicated.

mouse liver microsomes = test: In vitro incubation of aspalathin in mouse liver microsomes and phosphate buffer; format: in vitro ADME
Procedure: Synthetic aspalathin (10 µM) was incubated at 37 °C in a solution containing 1 mg/mL microsomes (male Mouse BALB/c, Xenotech, Kansas city, KS, USA), magnesium chloride (5 mM) and nicotinamide adenine dinucleotide phosphate (NADPH) (1 mM) in phosphate buffer (100 mM, pH 7.4), for 1 h while shaking. A control containing all the sample constituents (not incubated), another containing no NADPH, and another containing only the compound in phosphate buffer were also included and handled similarly to the test sample.
(§1) The frozen whole blood samples, as well as the samples incubated with microsomes and controls, were thawed, extracted by protein precipitation using 0.1% formic acid (FA) in acetonitrile, centrifuged and filtered through 0.22 µm polyvinylidene difluoride (PVDF) filters (Merck Millipore, Frankfurter Straße, Darmstadt, Germany). Frozen whole urine samples were thawed and diluted 5 times in 0.1% aqueous FA. Samples were analysed by LC-MS/MS on an Agilent 1200 Rapid Resolution HPLC system (600 bar, Agilent Technologies) coupled to a 4000 QTRAP® (AB Sciex, Framingham, MA, USA) equipped with a Turbo V™ […]. Filtered samples (10 μL), stored on a sample tray maintained at 8 °C, were injected on a Gemini C6-Phenyl column (150 × 2.0 mm, 3 µm particles) (Phenomenex, Santa Clara, CA, USA) at 40 °C. […]

[1] = Acute mouse study, metabolite identification in blood and urine by LC-MS/MS; format: in vivo; conditions: oral 50 mg/kg aspalathin, urine over 8 h, tentative identification by LC-MS/MS
Procedure: An acute mouse study was performed under ethical approval from the Ethics Committee for Research on Animals (ECRA) of the South African Medical Research Council (Ref:07/13). Three 8-week old male C57.BKS mice, obtained from the Primate Unit of the South African Medical Research Council (Tygerberg, South Africa), were housed individually in polycarbonate cages with wired lids and kept in a controlled environment of 23–24 °C, 50% humidity, and a 12 h light/dark cycle. Prior to the study, urine was collected from the fasting mice overnight in a metabolic cage. Baseline fasted blood was collected via tail snip into a heparin tube, snap frozen in liquid nitrogen, and stored at −80 °C. Each mouse received a single dose of synthetic aspalathin (50 mg/kg body weight) dissolved in phosphate-buffered saline (PBS) (5 mg/mL) via orogastric gavage. Blood samples were collected and handled as described for fasting at time 0 (pre-gavage), and 1, 2, 4, 6, and 8 h post-gavage. All the samples were collected into the same heparin tube and kept on ice during the experiment. Urine was collected over the 8-h post-gavage monitoring period and the samples were stored at −80 °C until analysis.
as §1

| product identified after incubation of aspalathin in mouse liver microsomes (mouse liver microsomes; aspalathin 10 µM, 1 mg/mL microsomes, NADPH, 37 °C, 1 h) | product identified after incubation of aspalathin in phosphate buffer (mouse liver microsomes; phosphate buffer pH 7.4) | metabolite present in mouse urine (relative concentrations) [1] | Compound | Papp A→B at 2 h (in vitro) |
| --- | --- | --- | --- | --- |
|  |  |  | O=c1cc(-c2ccc(O)c(O)c2)oc2cc(O)c([C@@H]3O[C@H](CO)[C@@H](O)[C@H](O)[C@H]3O)c(O)c12 [Isoorientin] | 1.69 ± 0.2 ×10⁻⁶ cm/s |
|  |  |  | O=c1cc(-c2ccc(O)c(O)c2)oc2c([C@@H]3O[C@H](CO)[C@@H](O)[C@H](O)[C@H]3O)c(O)cc(O)c12 [Orientin] | 1.92 ± 0.2 ×10⁻⁶ cm/s |
| identified | identified | identified | Eriodictyol-C-glucoside [M1] |  |
